{"source": "patent US20240277798A1", "about": "“CYCLOSPORINE COMPOSITIONS AND METHODS OF USE” (Bacainn Biotherapeutics, Ltd., priority 2021, published 2024)", "key": {"SGF FeSSIF stability": {"assay": "SGF FeSSIF stability", "type": "in vitro ADME", "conditions": "10 μM, 37° C., 6 hours, predicted", "description": "SGF FeSSIF Stability Procedure. BT090 (10 μM) was incubated in duplicate at 37° C. for a total of 6 hours in simulated gastric fluid (SGF) (Ricca, Arlington, TX) and Fed State Simulated Intestinal Fluid (FeSSIF) (Biorelevant, London, UK). The reactions were initiated by spiking the test articles (1 mM water stock solutions) in their respective buffers. At selected time points (0, 0.5, 1, 2, 4, and 6 hours), a 50 μL aliquot was taken from the incubation mixtures and frozen at −80° C. At the end of the incubation period, 200 μL of 50:50 acetonitrile:water containing the internal standards (IS) were added to every tube and vortexed thoroughly. The 0 hour samples were prepared in pre-quenched SGF or FeSSIF. All quenched samples were then submitted to bioanalysis for LC-MS/MS quantification.\nBioanalysis. BT090 samples were analyzed by LC-MS/MS using a Thermo Accela UPLC and a Thermo Q-Exactive mass spectrometer. The [M+H]+ adducts of the compounds and internal standards were monitored using positive mode electrospray ionization in exact mass mode. […]\nSGF FeSSIF Stability Procedure. […] All quenched samples are then submitted to bioanalysis for LC-MS/MS quantification.\nBioanalysis. […] The [M+H]+ adducts of the compounds and internal standards are monitored using positive mode electrospray ionization in exact mass mode. […]"}, "FPR1": {"molecular_target": "T1, FPR1 (Homo sapiens, UniProt P21462)", "T1 construct": "endogenous in cells; host or cells: freshly isolated human neutrophils (PMNs), migrating across a T84 epithelial monolayer", "T1 sequence (P21462 1-350)": "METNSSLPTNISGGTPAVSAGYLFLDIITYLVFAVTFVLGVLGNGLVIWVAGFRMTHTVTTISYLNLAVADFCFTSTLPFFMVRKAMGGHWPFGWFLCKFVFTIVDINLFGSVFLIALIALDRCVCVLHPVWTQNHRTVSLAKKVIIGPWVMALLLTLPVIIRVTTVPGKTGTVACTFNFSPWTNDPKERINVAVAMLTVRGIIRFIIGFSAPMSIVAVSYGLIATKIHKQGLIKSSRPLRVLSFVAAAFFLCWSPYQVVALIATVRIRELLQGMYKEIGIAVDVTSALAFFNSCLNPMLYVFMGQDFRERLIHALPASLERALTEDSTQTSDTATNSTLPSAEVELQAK", "assay": "Inhibition of FPR1 measured as inhibition of fMLP-induced neutrophil transmigration across T84 monolayer", "type": "cell-based", "conditions": "FIG. 3B", "description": "T84 colorectal cancer cells were grown to confluence on the bottom side of 12 well polycarbonate membrane inserts of a 24 well Transwell® plate. The confluent growth of these epithelial cells results in physiologically-relevant apical (luminal) and basolateral surfaces in the transwells. Freshly isolated and prepared human neutrophils were pretreated in compound (BT051 or cyclosporine A) for 1 hour on ice.\nBT051 or cyclosporine A was added to the apical surface of the monolayer. The potent neutrophil chemoattractant, N-formyl-methionyl-leucyl-phenylalanine (fMLP) (100 nM), which activates neutrophil migration via its interaction with the FPR1 protein on neutrophils, was also added to the apical side of the monolayer. The compound-treated neutrophils were then added to the basolateral side and allowed to transmigrate through the monolayer for 2 hours. The number of neutrophils migrated to the apical chamber (due to the fMLP gradient) was then assayed by determination of myeloperoxidase activity (a neutrophil biomarker). Inhibition of transmigration is indicated by lower MPO activity in the apical chamber.\nT84 colorectal cancer cells are grown to confluence on the bottom side of 12 well polycarbonate membrane inserts of a 24 well Transwell® plate. The confluent growth of these epithelial cells results in physiologically-relevant apical (luminal) and basolateral surfaces in the transwells. […]"}, "[1]": {"assay": "Rat PK, plasma concentrations after oral dosing", "type": "in vivo, Sprague-Dawley rats"}, "[2]": {"conditions": "BT070 10 mg/kg orally, rat, individual animals, 10 mg/kg"}, "[3]": {"conditions": "BT070 10 mg/kg orally, rat, mean"}}, "note": "“And” between values parts separate entries of the source, which are not always exact repeats. Equal values may be shown once.", "data": [{"compound": "CC[C@@H]1NC(=O)[C@H]([C@H](O)[C@H](C)CCCCCC(=O)O)N(C)C(=O)[C@H](C(C)C)N(C)C(=O)[C@H](CC(C)C)N(C)C(=O)[C@H](CC(C)C)N(C)C(=O)[C@@H](C)NC(=O)[C@H](C)NC(=O)[C@H](CC(C)C)N(C)C(=O)[C@H](C(C)C)NC(=O)[C@H](CC(C)C)N(C)C(=O)CN(C)C1=O", "note": "[BT070]", "values": [{"measurement": "stability in simulated gastric fluid (SGF)", "setting": "SGF FeSSIF stability", "result": "stable"}, {"measurement": "stability in simulated intestinal fluid (FeSSIF)", "setting": "SGF FeSSIF stability", "result": "stable"}, {"measurement": "inhibition of PMN transmigration/activation", "setting": "FPR1; concentration not given", "result": "approximately 50%"}, {"measurement": "fMLP-mediated PMN transmigration/activation", "setting": "FPR1; result in words", "result": "inhibit"}, {"measurement": "plasma concentration", "setting": "[1]; BT070 10 mg/kg orally, rat, 0.5 h, individual animals, 10 mg/kg", "result": "7472.8 ng/mL and 746.7 ng/mL and 2546.3 ng/mL"}, {"measurement": "Mean plasma concentration", "setting": "[1]; BT070 10 mg/kg orally, rat, 0.5 h, mean", "result": 3588.6, "unit": "ng/mL"}, {"measurement": "plasma concentration", "setting": "[1]; BT070 10 mg/kg orally, rat, 1 h, individual animals, 10 mg/kg", "result": "4382.8 ng/mL and 725.2 ng/mL and 1796.5 ng/mL"}, {"measurement": "Mean plasma concentration", "setting": "[1]; BT070 10 mg/kg orally, rat, 1 h, mean", "result": 2301.5, "unit": "ng/mL"}, {"measurement": "plasma concentration", "setting": "[1]; BT070 10 mg/kg orally, rat, 2 h, individual animals, 10 mg/kg", "result": "2238.3 ng/mL and 1114.4 ng/mL and 1215.5 ng/mL"}, {"measurement": "Mean plasma concentration", "setting": "[1]; BT070 10 mg/kg orally, rat, 2 h, mean", "result": 1522.8, "unit": "ng/mL"}, {"measurement": "plasma concentration", "setting": "[1]; BT070 10 mg/kg orally, rat, 4 h, individual animals, 10 mg/kg", "result": "1178.8 ng/mL and 861.5 ng/mL and 448.5 ng/mL"}, {"measurement": "Mean plasma concentration", "setting": "[1]; BT070 10 mg/kg orally, rat, 4 h, mean", "result": 829.6, "unit": "ng/mL"}, {"measurement": "plasma concentration", "setting": "[1]; BT070 10 mg/kg orally, rat, 6 h, individual animals, 10 mg/kg", "result": "641.5 ng/mL and 543.6 ng/mL and 280.0 ng/mL"}, {"measurement": "Mean plasma concentration", "setting": "[1]; BT070 10 mg/kg orally, rat, 6 h, mean", "result": 488.3, "unit": "ng/mL"}, {"measurement": "plasma concentration", "setting": "[1]; BT070 10 mg/kg orally, rat, 8 h, individual animals, 10 mg/kg", "result": "312.1 ng/mL and 451.6 ng/mL and 118.1 ng/mL"}, {"measurement": "Mean plasma concentration", "setting": "[1]; BT070 10 mg/kg orally, rat, 8 h, mean", "result": 293.9, "unit": "ng/mL"}, {"measurement": "plasma concentration", "setting": "[1]; BT070 10 mg/kg orally, rat, 24 h, individual animals, 10 mg/kg", "result": "12.0 ng/mL and 268.9 ng/mL and 22.8 ng/mL"}, {"measurement": "Mean plasma concentration", "setting": "[1]; BT070 10 mg/kg orally, rat, 24 h, mean", "result": 101.2, "unit": "ng/mL"}, {"measurement": "% Extrapolation", "setting": "[1]; [2]", "result": "0.3% and 38.42% and 2.46%"}, {"measurement": "AUCinf", "setting": "[1]; [2]", "result": "17616.8 ng/mL*h and 19158.4* ng/mL*h and 7432.0 ng/mL*h"}, {"measurement": "AUClast", "setting": "[1]; [2]", "result": "17560.9 ng·h/mL and 11798.3 ng·h/mL and 7249.5 ng·h/mL"}, {"measurement": "CL_F", "setting": "[1]; [2]", "result": "9.5 mL/min/kg and 8.7* mL/min/kg and 22.43 mL/min/kg"}, {"measurement": "Cmax", "setting": "[1]; [2]", "result": "7472.8 ng/mL and 1114.4 ng/mL and 2546.3 ng/mL"}, {"measurement": "tmax", "setting": "[1]; [2]", "result": "0.50 h (2×) and 2.00 h"}, {"measurement": "% Extrapolation, Mean", "setting": "[1]; [3]", "result": 13.7, "unit": "%"}, {"measurement": "AUCinf, Mean", "setting": "[1]; [3]", "result": 14735.7, "unit": "ng·h/mL"}, {"measurement": "AUClast, Mean", "setting": "[1]; [3]", "result": 12202.9, "unit": "ng·h/mL"}, {"measurement": "CL_F, Mean", "setting": "[1]; [3]", "result": 13.5, "unit": "mL/min/kg"}, {"measurement": "Cmax, Mean", "setting": "[1]; [3]", "result": 3711.2, "unit": "ng/mL"}, {"measurement": "M.R.T. po, Mean", "setting": "[1]; [3]", "result": 10.8, "unit": "h"}, {"measurement": "tmax, Mean", "setting": "[1]; [3]", "result": 1.0, "unit": "h"}, {"measurement": "plasma concentration", "setting": "[1]; BT070 as breakdown product after BT051 10 mg/kg orally, rat, 0.5 h, individual animals", "result": "3.3 ng/mL and NQ (Not quantifiable. No peak or below limit of quantification (LOQ = 2.5 ng/mL)) (4×)"}, {"measurement": "Mean plasma concentration", "setting": "[1]; BT070 as breakdown product after BT051 10 mg/kg orally, rat, 0.5 h, mean", "result": 3.3, "unit": "ng/mL"}, {"measurement": "plasma concentration", "setting": "[1]; BT070 as breakdown product after BT051 10 mg/kg orally, rat, 1 h, individual animals", "result": "NQ (Not quantifiable. No peak or below limit of quantification (LOQ = 2.5 ng/mL))"}, {"measurement": "plasma concentration", "setting": "[1]; BT070 as breakdown product after BT051 10 mg/kg orally, rat, 2 h, individual animals", "result": "NQ (Not quantifiable. No peak or below limit of quantification (LOQ = 2.5 ng/mL))"}, {"measurement": "plasma concentration", "setting": "[1]; BT070 as breakdown product after BT051 10 mg/kg orally, rat, 4 h, individual animals", "result": "NQ (Not quantifiable. No peak or below limit of quantification (LOQ = 2.5 ng/mL))"}, {"measurement": "plasma concentration", "setting": "[1]; BT070 as breakdown product after BT051 10 mg/kg orally, rat, 6 h, individual animals", "result": "NQ (Not quantifiable. No peak or below limit of quantification (LOQ = 2.5 ng/mL))"}, {"measurement": "plasma concentration", "setting": "[1]; BT070 as breakdown product after BT051 10 mg/kg orally, rat, 8 h, individual animals", "result": "NQ (Not quantifiable. No peak or below limit of quantification (LOQ = 2.5 ng/mL))"}, {"measurement": "plasma concentration", "setting": "[1]; BT070 as breakdown product after BT051 10 mg/kg orally, rat, 24 h, individual animals", "result": "NQ (Not quantifiable. No peak or below limit of quantification (LOQ = 2.5 ng/mL))"}, {"measurement": "Cmax", "setting": "[1]; BT070 as breakdown product after BT051 10 mg/kg orally, rat, individual animals", "result": 3.3, "unit": "ng/mL"}, {"measurement": "Cmax, Mean", "setting": "[1]; BT070 as breakdown product after BT051 10 mg/kg orally, rat, mean", "result": 3.3, "unit": "ng/mL"}, {"measurement": "oral bioavailability of the breakdown product", "setting": "[1]; BT070 following oral administration of BT051 in rats at 10 mg/kg, result in words", "result": "not orally bioavailable"}, {"measurement": "detectability in plasma", "setting": "[1]; rats, 10 mg/kg orally, result in words", "result": "present in the plasma in all subject rats from 15 minutes to 24 hours"}]}]}
